Reference: patent publication US12083119B2, “Methods and compositions for treating viral or virally-induced conditions” (VIRACTA SUBSIDIARY, INC., priority 2010, dated 2024)

How the values were obtained:
P3HR1 cells [1] = type: cell-based, human; details: then GCV for up to 6 days
EBV TK = experiment: Thymidine kinase expression assay (RT and real-time PCR of TK mRNA); type: cell-based, Epstein-Barr virus; parameters: TK expression: dose or concentration left out as unconfirmed
Protocol: To measure the relative level of TK mRNA in various total RNA preparations, reverse transcription and quantitative PCR using real time PCR technology was used. Five micrograms of total RNA was reverse-transcribed using random hexamer primers and Superscript III cDNA synthesis kit (Invitrogen). The cDNA was diluted to a final volume of 60 μl with sterile water, 8 μl of which was then used in each real time PCR reaction in an ABI 7500 Sequencher using SYBR-Green technology. Primers used for the amplification of TK were EBV-TK1-F: 5′-[…]-3′ (SEQ ID NO: 1); EBV-TK1-R: 5′-[…]-3′ (SEQ ID NO: 2). The β-actin mRNA levels in those samples were determined similarly using β-actin-specific primers Actin/hu-F: 5′-[…]-3′ (SEQ ID NO: 3); Actin/hu-R: 5′-[…]-3′ (SEQ ID NO: 4). The relative level of TK expression in a sample was calculated following normalization of β-actin expression level.
(§1) The induction of lytic phase was assayed in EBV-positive lymphoma cell lines exposed to different HDAC inhibitors (HDACi) for 24-48 hrs, then the expression of EBV TK and other EBV transcripts by RT-PCR analysis was quantified. To determine tumor cytotoxic activity of the combination of HDACi and GCV, EBV+ lymphoma cells were exposed to a range of concentrations of HDAC inhibitors and ganciclovir (GCV) for 3 days and then to GCV alone for another 3 days. Efficacy of a particular HDAC inhibitor in the combination treatment approach was then determined by enumerating living cells. A general experimental protocol is described below.
P3HR1 cells were seeded in 60 mm plates containing 3×10^6 cells in 3 ml of fresh growth media. Appropriate concentrations of HDAC inhibitors were added to the plate and cells were incubated in the presence of HDAC inhibitors for 6 h, 24 h, 48 h, or as needed. Cells were harvested by centrifugation and washed once in cold PBS. Total cellular RNA was then extracted. To measure the relative level of TK mRNA in various total RNA preparations, reverse transcription and quantitative PCR using real time PCR analysis were used. See, Ghosh, S. K., Forman, L. W., Akinsheye, I., Perrine, S. P., Faller, D. V.: Short discontinuous sodium butyrate exposure efficiently sensitizes latently EBV infected cells towards nucleoside analogue-mediated growth inhibition, Blood Cells Mol. Diseases (2007), 38:57-65. The relative level of TK expression in a sample was calculated following normalization of β-actin expression level.

P3HR1 cells [2] = type: cell-based, human; details: for effective concentration: in the presence of GCV
Protocol: as §1
(§2) The EBV-positive B lymphoma cell line P3HR1 was used in the study. The P3HR1 cell line was originally derived from Burkitt's lymphoma patient. EBV maintains a latent state of replication in this cell line. These cells were maintained in RPMI 1640 with 10% fetal bovine serum containing 100 U penicillin per ml and 100 μg streptomycin per ml.
To test the sensitivity of EBV-positive lymphoma cells towards HDAC inhibitors, P3HR1 cells were treated with HDAC inhibitors in the presence of one anti-viral drug. At the end of the assay, the efficacy of the HDAC inhibitors was assessed by measuring the inhibition of cell growth compared to untreated cells.
(§3) Healthy, actively-growing P3HR1 cells were harvested and resuspended in fresh growth media. Cells were seeded in wells. Appropriate dilutions of HDAC inhibitors were added to certain wells, some of which received an anti-viral drug (such as GCV at 50 μM concentration). At 72 hrs, 800 μl of culture fluid was removed from each well. Wells were then refed with 1.0 ml fresh growth media without HDAC inhibitors. Fresh GCV solution was added to the wells that originally received GCV at the same initial concentration. On day 6, cell morphology was observed under microscope and viable cell counts in each individual wells were determined by trypan blue dye exclusion method using an automated cell counter (Countess, Invitrogen).

HIV-1 = details: OD, converted to pg of protein
Protocol: Virus production (p24 release) was examined in an HIV-1-infected monocyte line. Cells were treated or not treated with HDAC-inhibitors and other compounds. P24 release expressed as optical density (“OD”) (FIG. 13), and then converted to pg of protein (FIG. 14). […] DMSO was vehicle for some of the compounds tested.

EBV-TK = experiment: Induction of EBV-TK in EBV-immortalized B-cells and patient-derived tumor cells; type: cell-based, Epstein-Barr virus; details: for expression of viral thymidine kinase and other viral protein kinases: EBV-infected lymphocytes
Text: In some embodiments, inducing agents include arginine butyrate and/or other histone deacetylase inhibitors. […] This expression of a viral gene can be used as a point for attack by anti-viral agents, allowing for treatment of latent infections.
Treatment of patients with viral-associated tumors such as EBV with inducing agents such as arginine butyrate, to induce the expression of EBV-TK/EBV-PK, and GCV, to eliminate EBV-TK/EBV-PK expressing tumor cells, is an effective, non-toxic therapy. […] Without wishing to be bound by theory, it is believed that just the presence of the EBV genome in latent form would make the tumor susceptible to this combination protocol.

P3HR1 cells [3] = experiment: Titration / toxicity of HDAC inhibitors alone on P3HR1 cells; type: cell-based, human
Protocol: as §3

P3HR1 cells [4] = type: cell-based, human
Protocol: as §2, with “throughout these assays.” for “in the study.”, “Cells” for “These cells”, “ml. […] Viable cell counts were measured and toxicity was expressed as percentage of cell growth compared to untreated cells. As shown in FIG. 2A and FIG. 2B, PCV was less toxic to the cells compared to GCV.” for “ml.”

Nc1ccccc1NC(=O)c1ccc(CNC(=O)OCc2cccnc2)cc1 [MS-275, 3-pyridinylmethyl [[4-[[(2-aminophenyl)amino]carbonyl]phenyl]methyl] carbamate]
exposure sensitizing cells to GCV-mediated effects as efficiently as 72 hr continuous treatment (P3HR1 cells [1]): 24 h
EBV-TK expression in the tumor cells (EBV TK): strongly induced
concentration strongly inducing TK expression (EBV TK): ≥ 500 nM
time post treatment at which TK expression was induced (EBV TK): 6 h
concentration with activity in combination with GCV comparable to NaB at 1.0 mM (P3HR1 cells [2]): 500 nM
effective concentration (P3HR1 cells [2]): 200 to 500 nM

CCCCCCCC(=O)SCC/C=C/[C@@H]1CC(=O)NCc2nc(cs2)C2=N[C@@](C)(CS2)C(=O)N[C@@H](C(C)C)C(=O)O1 [largazole]
virus production (p24 release) (HIV-1): active

O=C(CCCCCN1C(=O)c2cccc3cccc(c23)C1=O)NO [Scriptaid]
effect with GCV in reducing cell growth (P3HR1 cells [2]; especially at 500 nM and 1 μM): strong synergistic effect

Oxamflatin
activity in combination with GCV on cell growth / cell killing (P3HR1 cells [2]): synergistic activity
activity level (growth suppression) with GCV (P3HR1 cells [2]; at 200 nM, compared with 1.0 mM NaB): more than what typically seen with 1.0 mM NaB

CC(C)C(N)=O [isobutyramide]
expression of viral thymidine kinase and other viral protein kinases (EBV-TK): enhance expression

CCCC(=O)[O-].[Na+] [NaB, sodium butyrate]
reduction of growth compared to cells treated with NaB or GCV alone (P3HR1 cells [2]; NaB+GCV): up to 50%
optimal concentration (P3HR1 cells [2]; combination with GCV): 1.0 mM
cell growth, HDAC inhibitor alone (P3HR1 cells [3]; NaB at concentration higher than 1.0 mM): reduces cell growth to a significant degree

CCC(=O)CCCCC[C@@H]1NC(=O)[C@H]2CCCCN2C(=O)[C@H]([C@@H](C)CC)NC(=O)[C@H](Cc2cn(OC)c3ccccc23)NC1=O [apicidin]
virus production (p24 release) (HIV-1): active
reduction of cell growth over cells treated with apicidin alone (P3HR1 cells [2]; 100 nM and 200 nM, with GCV): 40-50%
toxicity to the cells (P3HR1 cells [3]; 500 nM): very toxic
concentration quite toxic to the cells (P3HR1 cells [3]; apicidin alone): higher than 200 nM

O=C(/C=C/c1cccc(S(=O)(=O)Nc2ccccc2)c1)NO [PXD101]
TK expression (EBV TK): high level

CCC(Nc1ncnc2ccccc12)C(=O)O (stereo not drawn) [RB3]
virus production (p24 release) (HIV-1): levels similar to the control of vehicle alone

CC(C=CC(=O)NO)=CC(C)C(=O)c1ccc(N(C)C)cc1 (stereo not drawn) [trichostatin A, 7-[4-(dimethylamino)phenyl]-N-hydroxy-4,6-dimethyl-7-oxohepta-2,4-dienamide]
virus production (p24 release) (HIV-1): active

CCCC(CCC)C(=O)O [VA, valproic acid]
efficiency in inducing TK expression (EBV TK; compared with NaB): less efficient than NaB
activity in combination with GCV on cell growth / cell killing (P3HR1 cells [2]): very similar activity

O=C(CCCCCCC(=O)Nc1ccccc1)NO [SAHA, suberoyl anilide hydroxamic acid]
TK expression level (EBV TK; compared with efficient concentrations of butyrate (1.0 mM)): higher level

CCC(C)(C)C(=O)O [ST20, 2,2-dimethyl butyrate]
virus production (p24 release) (HIV-1): levels similar to the control of vehicle alone

Nc1nc2c(ncn2CCC(CO)CO)c(=O)[nH]1 [PCV, penciclovir]
toxicity (percentage of cell growth compared to untreated cells) (P3HR1 cells [4]): less toxic
inhibition of cell growth at higher concentrations (P3HR1 cells [4]; PCV at higher concentrations, combination with Na-butyrate): did not change significantly

Cc1[nH]c2ccccc2c1CCNCc1ccc(/C=C/C(=O)NO)cc1 [LBH589]
EBV-TK expression in the tumor cells (EBV TK): strongly induced
TK expression level (EBV TK; compared to optimum concentration of NaB (2.5 mM)): quite high
virus production (p24 release) (HIV-1): active
concentration with activity in combination with GCV comparable to NaB at 1.0 mM (P3HR1 cells [2]): 50 nM
effective concentration (P3HR1 cells [2]): 50 to 100 nM

arginine butyrate
EBV-TK activity (EBV-TK; EBV-immortalized B-cells and patient-derived tumor cells): induces EBV-TK activity
expression of viral thymidine kinase and other viral protein kinases (EBV-TK): enhance expression
virus production (p24 release) (HIV-1): active

CCCCCCCCCCCCCC(=O)O[C@@H]1[C@@H](C)[C@@]2(O)[C@@H](C=C(CO)C[C@]3(O)C(=O)C(C)=C[C@@H]23)[C@@H]2C(C)(C)[C@]12OC(C)=O [phorbol myristate acetate]
virus production (p24 release) (HIV-1): active
